From PubChem BioAssay (NCI) come the findings set out here.

Some test systems named below: ACHN renal; HCC-2998 colon; CAKI-1 renal; A549 NSCLC; RXF 393 renal; M14 melanoma; SW-620 colon; MCF7 breast; NCI/ADR-RES ovarian; MDA-MB-231 breast; BT-549 breast.
What all share (assay): NCI tumour cell line growth inhibition, 48 h

The structures appear in SMILES notation. Values joined by “and” are separate entries in the source; they are usually repeats but may differ in a detail not shown here. Equal entries are not always repeated.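 Interpolation was linear, between the two tested concentrations surrounding the appropriate level; five concentrations were tested over 48 hours in 96-well plates. Here, GI50 denotes the concentration required for 50% inhibition of growth. At the TGI there is no net growth.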

Turning to `CCc1ccccc1NC(=O)/C(N=O)=C(/C)O`, the TGI with ACHN renal, with HCC-2998 colon, in the assay with CAKI-1 renal, in the assay with A549 NSCLC, with RXF 393 renal and with M14 melanoma was above 100 µM throughout. The compound further displayed a TGI with SW-620 colon above 100 µM.
For `COc1cccc(NC(=O)CC(=O)N2N=C(n3ccc4ccccc43)CC2c2ccccc2)c1` (stereo not given), the TGI in the assay with ACHN renal, in the assay on HCC-2998 colon, in the assay on A549 NSCLC, in the assay with RXF 393 renal, in the assay on M14 melanoma and with SW-620 colon was above 100 µM in each case.
In the case of `N#CNC(=NCCc1c[nH]c2ccccc12)Oc1ccccc1`, the TGI in the assay with ACHN renal, with HCC-2998 colon, in the assay with A549 NSCLC, in the assay with RXF 393 renal, in the assay with M14 melanoma and in the assay on SW-620 colon was above 100 µM in each case.
As to `NC(=O)NC12CC3CC(CC(F)(C3)C1)C2`, the TGI in the assay with ACHN renal, with HCC-2998 colon, in the assay on A549 NSCLC, in the assay on RXF 393 renal, in the assay on M14 melanoma and with SW-620 colon was above 100 µM each time.
Take `O=C1c2ccccc2N2Oc3ccccc3C12c1ccccc1` (stereo not given): the TGI in the assay with ACHN renal, with HCC-2998 colon, in the assay on A549 NSCLC, in the assay on RXF 393 renal, with M14 melanoma and with SW-620 colon was above 100 µM each time.
Take `COc1cc(C2c3cc4c(cc3[C@@H](NCCN3CCOCC3)C3COC(=O)[C@H]23)OCO4)cc(OC)c1O` (stereo not given in full): the GI50 in the assay with ACHN renal was 264 nM and 679 nM; with A549 NSCLC it was 314 nM and 761 nM. Further, the TGI in the assay on ACHN renal was 1.34 µM and 2.84 µM; in the assay with HCC-2998 colon, 11.5 µM and 7.24 µM; in the assay with CAKI-1 renal, above 75 µM; with A549 NSCLC, 2.64 µM and 4.28 µM; in the assay with RXF 393 renal, 9.33 µM and 10.4 µM; in the assay on M14 melanoma, 11.7 µM and > 17.5 µM. For the same compound, the TGI with SW-620 colon is 18.5 µM and > 17.5 µM.
In the case of `C#CC1(O)CCCCCCCCC2(CCCCCCCC1)OCCO2`, the TGI is 27.3 µM in the assay with ACHN renal; 29.5 µM with HCC-2998 colon; 24.7 µM in the assay with CAKI-1 renal; 26.8 µM in the assay on A549 NSCLC; 24.5 µM in the assay with RXF 393 renal; 33.9 µM with M14 melanoma. Moreover, the TGI with SW-620 colon stood at 34.7 µM; with MCF7 breast it was 36.3 µM; in the assay with NCI/ADR-RES ovarian it was 34.7 µM.
As to `Cc1cc(S(=O)(=O)/N=C(\[N-]S(=O)(=O)c2cc(Cl)sc2Cl)[n+]2ccc(N(C)C)cc2)c(S)cc1Cl`, the TGI in the assay with ACHN renal was above 100 µM; in the assay with HCC-2998 colon it was above 100 µM; in the assay with CAKI-1 renal, above 100 µM; in the assay on RXF 393 renal, above 100 µM; in the assay on M14 melanoma, 95.8 µM; in the assay on SW-620 colon, above 100 µM. Besides, the TGI in the assay with MCF7 breast, in the assay on NCI/ADR-RES ovarian and with MDA-MB-231 breast was above 100 µM in each case.
For the compound `COc1ccc(/C=C2\C[C@H]3[C@@H]4CCC5=CC(=O)CC[C@]5(C)[C@H]4CC[C@]3(C)C2=O)cc1OC`, the TGI in the assay with ACHN renal, with HCC-2998 colon, with CAKI-1 renal, in the assay on A549 NSCLC, in the assay on RXF 393 renal and in the assay on M14 melanoma was above 100 µM throughout. The TGI with SW-620 colon, with BT-549 breast, in the assay on MCF7 breast and in the assay with NCI/ADR-RES ovarian was above 100 µM each time.
For `CCc1cccc(C)c1NC(=O)C1=C(C)NC(C)=C(C(=O)Nc2c(C)cccc2CC)C1c1ccc2c(c1)OCO2`, the TGI with ACHN renal was 29.6 µM; with HCC-2998 colon, 33.8 µM; with CAKI-1 renal it was 39.4 µM; in the assay with A549 NSCLC, 43.6 µM; in the assay with RXF 393 renal, 27.2 µM; with M14 melanoma, 33.8 µM. Besides, in the assay on SW-620 colon, the TGI turned out to be 55.9 µM.
For `CC(Oc1ccc(OCC2CCCCC2)cc1)C(=O)NCc1ccco1` (stereo not given), the TGI with ACHN renal is above 100 µM; with HCC-2998 colon, above 100 µM; in the assay on A549 NSCLC, above 100 µM; with RXF 393 renal, 71.4 µM; in the assay on M14 melanoma, 42.6 µM.
For `CCOc1ccc(NC(=O)C(=O)C(C(=O)c2ccc3ccccc3c2)C2OC(=O)c3ccccc32)cc1` (stereo not given), the TGI with ACHN renal is above 100 µM; in the assay with HCC-2998 colon, 23.2 µM; in the assay with CAKI-1 renal, above 100 µM; in the assay with A549 NSCLC it was above 100 µM; in the assay with M14 melanoma, 42.2 µM; in the assay with SW-620 colon, 92.6 µM.
In the case of `COc1ccc(CC2(Cc3ccc(OC)cc3)CCOC2=O)cc1`, the TGI with ACHN renal, with CAKI-1 renal, in the assay with A549 NSCLC, with M14 melanoma and in the assay on SW-620 colon was above 100 µM in each case.
Take `Cn1c(N)nc(-c2ccc(Cl)cc2)c1SSc1c(-c2ccc(Cl)cc2)nc(N)n1C`: the TGI is 5.14 µM in the assay on ACHN renal; 20.7 µM in the assay on HCC-2998 colon; 27.2 µM with A549 NSCLC; 5.47 µM with RXF 393 renal; 3.78 µM in the assay with M14 melanoma; 4.03 µM in the assay with SW-620 colon. The TGI with BT-549 breast was 5.19 µM; with MDA-MB-231 breast it was 2.88 µM.
Take `CC(=O)CC1=C(OC(C)C)C2(OCCO2)C1O` (stereo not given): the TGI with ACHN renal, in the assay on CAKI-1 renal, in the assay with A549 NSCLC, in the assay with RXF 393 renal, in the assay with M14 melanoma and with SW-620 colon was above 100 µM each time. In addition, the TGI in the assay with BT-549 breast, in the assay with MCF7 breast and in the assay on MDA-MB-231 breast was above 100 µM in each case.
Regarding `ON=C(CC(O)(C(F)(F)Cl)C(F)(F)Cl)CC(O)(C(F)(F)Cl)C(F)(F)Cl`, the TGI was above 10 µM in the assay on ACHN renal; above 10 µM in the assay on HCC-2998 colon; above 10 µM in the assay with CAKI-1 renal; above 10 µM in the assay on A549 NSCLC; 7.79 µM in the assay with RXF 393 renal; above 10 µM in the assay on SW-620 colon. The TGI in the assay with MCF7 breast and in the assay with NCI/ADR-RES ovarian was above 10 µM in each case.
`CCOc1cc2c(c(OCC)c1O)CC[C@@H]1[C@@H]2CC[C@]2(C)[C@@H](O)CC[C@@H]12`: the TGI in the assay with ACHN renal is 57.4 µM; with CAKI-1 renal, 32.1 µM; in the assay with A549 NSCLC, above 100 µM; in the assay on RXF 393 renal, 17.1 µM; in the assay with M14 melanoma, above 100 µM; in the assay on SW-620 colon, 41.7 µM. Also, the results for the TGI with MCF7 breast, in the assay on NCI/ADR-RES ovarian and with MDA-MB-231 breast were 53.2 µM, 46 µM and 24.3 µM, respectively.
